What all share (format): functional
Holding throughout (settings): read-out: Activity

Assay [1] relates to MCF7. As to the kind of experiment: Cytotoxicity against human MCF7 cells assessed as cell viability at 30 uM incubated for 72 hrs by SRB assay relative to control. (In general: In SRB staining, fixed cells bind dye roughly in proportion to their protein.)
The subject of assay [2] is Hs-578T. Nature of the assay: Cytotoxicity against human Hs-578T cells assessed as cell viability at 10 uM incubated for 72 hrs by SRB assay relative to control.
Assay [3] deals with MCF7. Nature of the assay: Cytotoxicity against human MCF7 cells assessed as cell viability at 10 uM incubated for 72 hrs by SRB assay relative to control.
The test system of assay [4] is MDA-MB-231. As to the kind of experiment: Cytotoxicity against human MDA-MB-231 cells assessed as cell viability at 30 uM incubated for 72 hrs by SRB assay relative to control.
Assay [5] relates to MDA-MB-231. As to the kind of experiment: Cytotoxicity against human MDA-MB-231 cells assessed as cell viability at 10 uM incubated for 72 hrs by SRB assay relative to control.
Assay [6] concerns Hs-578T. As to the kind of experiment: Cytotoxicity against human Hs-578T cells assessed as cell viability at 30 uM incubated for 72 hrs by SRB assay relative to control.

In the case of `COc1cccc2c1Oc1nc(-c3cccc(Br)c3)[nH]c(=O)c1C2`, the viability at 30 µM in assay [1] turned out to be 52.4%; in assay [4], 80.8%; in assay [6], 40.6%. Besides, the viability at 10 µM in assay [2] was determined as 66.8%; in assay [3] it was 78.4%; in assay [5] it was 92%.
As to `COc1ccc2c(c1)Cc1c(nc(-c3ccccc3OC)[nH]c1=O)O2`, the figures for the viability at 30 µM in assay [1], in assay [4] and in assay [6] were 70.4%, 65.9% and 65.6%, respectively. Also, the viability at 10 µM in assay [2] is 87.5%; in assay [3], 90.6%; in assay [5], 85%.
Consider `COc1cccc2c1C(=O)c1c(O)c3c(c(O)c1C2=O)C[C@@](O)(C(=O)CO)C[C@@H]3O[C@H]1C[C@H](N)[C@H](O)[C@H](C)O1` [DOXORUBICIN], for which the results for the viability at 30 µM in assay [1], in assay [4] and in assay [6] were 28.8%, 5.85% and 7.61%, respectively. The viability at 10 µM was found to be 8.65% in assay [2], 24.5% in assay [3] and 6.72% in assay [5].
For the compound `O=c1[nH]c(-c2ccc3c(c2)OCO3)nc2c1Cc1cc(Br)ccc1O2`, the viability at 30 µM turned out to be 83.1% in assay [1], 77.8% in assay [4] and 78.5% in assay [6]. Also, the viability at 10 µM in assay [2] stood at 86.1%; in assay [3] it was 83.4%; in assay [5], 85.3%.
`COc1cccc2c1Oc1nc(-c3cccc(Cl)c3)[nH]c(=O)c1C2`: the viability at 30 µM in assay [1] came out at 40.4%; in assay [4] it was 76.9%; in assay [6], 49.9%. Moreover, the viability at 10 µM in assay [2] stood at 72%; in assay [3], 69.8%; in assay [5] it was 80.8%.
In the case of `Cc1cccc2c1Oc1nc(-c3ccccc3)[nH]c(=O)c1C2`, the viability at 30 µM stood at 23.8% in assay [1], 15.9% in assay [4] and 62.1% in assay [6]. Also, the viability at 10 µM in assay [2] stood at 81.3%; in assay [3], 34.7%; in assay [5], 32.6%.
In the case of `CC(C)(C)c1cc(-c2nc3c(c(=O)[nH]2)Cc2ccccc2O3)cc(C(C)(C)C)c1O`, the values for the viability at 30 µM in assay [1], in assay [4] and in assay [6] were 94.7%, 95.2% and 81%, respectively. Also, the viability at 10 µM in assay [2] stood at 80.2%; in assay [3] it was 97.7%; in assay [5] it was 95.1%.
`O=c1[nH]c(-c2ccccc2)nc2c1Cc1ccccc1O2`: the results for the viability at 30 µM in assay [1], in assay [4] and in assay [6] were 79.2%, 53.2% and 65.4%, respectively. Besides, the viability at 10 µM in assay [2] came to 76.3%; in assay [3], 88.5%; in assay [5], 69.3%.
In the case of `N#CC1=C(/N=C/Nc2ccccc2)Oc2ccc(Br)cc2C1CC(=O)c1ccccc1` (centres undefined), the values for the viability at 30 µM in assay [1], in assay [4] and in assay [6] were 37.9%, 96% and 89.9%, respectively. The viability at 10 µM turned out to be 96.1% in assay [2], 74.6% in assay [3] and 98% in assay [5].
Take `COc1cccc(-c2nc3c(c(=O)[nH]2)Cc2cccc(OC)c2O3)c1`: the figures for the viability at 30 µM in assay [1], in assay [4] and in assay [6] were 71.3%, 51.6% and 85.3%, respectively. The figures for the viability at 10 µM in assay [2], in assay [3] and in assay [5] were 99.3%, 93.6% and 70.5%, respectively.
`COc1cccc2c1Oc1nc(-c3ccccc3Cl)[nH]c(=O)c1C2`: the viability at 30 µM amounted to 58.2% in assay [1], 90.1% in assay [4] and 72.5% in assay [6]. In addition, the viability at 10 µM in assay [2] is 81.7%; in assay [3], 74.7%; in assay [5], 92.5%.
In the case of `COc1ccc2c(c1)C=C1C(=O)NC(c3c(OC)cc(OC)cc3OC)N=C1O2` (centres undefined), the viability at 30 µM in assay [1] is 100%; in assay [4], 78.5%; in assay [6], 65.5%. Further, the viability at 10 µM worked out at 97% in assay [2], 101% in assay [3] and 86.3% in assay [5].
Take `Cc1ccc2c(c1)Cc1c(nc(-c3ccccc3)[nH]c1=O)O2`: the viability at 30 µM in assay [1] came to 73.1%; in assay [4], 65.6%; in assay [6], 73.3%. Moreover, the viability at 10 µM in assay [2] amounted to 96%; in assay [3], 85.8%; in assay [5], 90.1%.
`COc1cccc2c1Oc1nc(-c3ccco3)[nH]c(=O)c1C2`: the viability at 30 µM in assay [1] was found to be 100%; in assay [4], 85.8%; in assay [6] it was 90.7%. Moreover, the viability at 10 µM in assay [2] is 99.8%; in assay [3] it was 98.9%; in assay [5] it was 92.8%.
With `COc1cc(OC)c(C2N=C3Oc4c(cccc4OC)C=C3C(=O)N2)c(OC)c1` (centres undefined), the viability at 30 µM in assay [1] was 91.8%; in assay [4] it was 77.4%; in assay [6], 86%. Besides, the viability at 10 µM amounted to 94.8% in assay [2], 99.9% in assay [3] and 83.6% in assay [5].
For the compound `COc1cc(OC)c(C2N=C3Oc4ccc(Br)cc4C=C3C(=O)N2)c(OC)c1` (centres undefined), the viability at 30 µM in assay [1] was 76.2%; in assay [4] it was 64.4%; in assay [6], 68.6%. Also, the viability at 10 µM in assay [2] stood at 95.2%; in assay [3] it was 90.6%; in assay [5], 80.6%.
On to `COc1cccc2c1Oc1nc(-c3ccc(C)cc3)[nH]c(=O)c1C2`, for which the viability at 30 µM in assay [1] was found to be 77.2%; in assay [4] it was 91.1%; in assay [6], 63.3%. Moreover, the viability at 10 µM was determined as 86.8% in assay [2], 78.5% in assay [3] and 99.2% in assay [5].
`COc1cccc2c1Oc1nc(/C=C/c3ccccc3)[nH]c(=O)c1C2`: the viability at 30 µM in assay [1] was 56.7%; in assay [4], 92.5%; in assay [6] it was 97.9%. Moreover, the viability at 10 µM is 99.8% in assay [2], 84.7% in assay [3] and 99.2% in assay [5].
Turning to `COc1ccc(OC)c(-c2nc3c(c(=O)[nH]2)Cc2cccc(OC)c2O3)c1`, the viability at 30 µM in assay [1] was 76.6%; in assay [4], 88.4%; in assay [6] it was 74%. The viability at 10 µM in assay [2] turned out to be 72.7%; in assay [3], 77.7%; in assay [5], 87.1%.
Turning to `COc1cccc2c1Oc1nc(-c3cccc(O)c3)[nH]c(=O)c1C2`, the values for the viability at 30 µM in assay [1], in assay [4] and in assay [6] were 25.4%, 102% and 67.3%, respectively. Also, the viability at 10 µM in assay [2] amounted to 75.9%; in assay [3], 38%; in assay [5], 102%.
Consider `COc1ccccc1-c1nc2c(c(=O)[nH]1)Cc1cc(Cl)ccc1O2`, for which the viability at 30 µM in assay [1] stood at 57.3%; in assay [4], 65%; in assay [6] it was 38.7%. The viability at 10 µM in assay [2] came out at 78.4%; in assay [3], 80%; in assay [5] it was 88.2%.
In the case of `COc1cccc2c1OC1=NC(c3ccc4c(c3)OCO4)NC(=O)C1=C2` (centres undefined), the results for the viability at 30 µM in assay [1], in assay [4] and in assay [6] were 82.1%, 62.2% and 96.5%, respectively. In addition, the viability at 10 µM in assay [2] is 100%; in assay [3], 84.9%; in assay [5], 88.2%.
On to `COc1ccc(OC)c(-c2nc3c(c(=O)[nH]2)Cc2cc(Cl)ccc2O3)c1`, for which the viability at 30 µM in assay [1] turned out to be 62.6%; in assay [4] it was 78%; in assay [6] it was 92%. Also, the viability at 10 µM in assay [2] is 91.7%; in assay [3], 69.2%; in assay [5], 91%.
As to `COc1cccc2c1Oc1nc(-c3ccc(F)cc3)[nH]c(=O)c1C2`, the values for the viability at 30 µM in assay [1], in assay [4] and in assay [6] were 82.9%, 97.8% and 84.4%, respectively. Also, the viability at 10 µM was 97.5% in assay [2], 88.8% in assay [3] and 105% in assay [5].
For `COc1ccc2c(c1)Cc1c(nc(-c3cccc(Cl)c3)[nH]c1=O)O2`, the viability at 30 µM came to 45.8% in assay [1], 44.2% in assay [4] and 74.7% in assay [6]. Moreover, the viability at 10 µM in assay [2] was found to be 76%; in assay [3], 79.3%; in assay [5], 80.7%.
As to `COc1cccc2c1Oc1nc(-c3ccccc3)[nH]c(=O)c1C2`, the viability at 30 µM in assay [1] was found to be 88.5%; in assay [4], 89.2%; in assay [6], 75.8%. The viability at 10 µM in assay [2] stood at 91.1%; in assay [3], 91.2%; in assay [5] it was 91.8%.
Take `COc1cccc2c1Oc1nc(-c3ccc(Br)cc3)[nH]c(=O)c1C2`: the figures for the viability at 30 µM in assay [1], in assay [4] and in assay [6] were 75.3%, 80.4% and 84.4%, respectively. For the same compound, the results for the viability at 10 µM in assay [2], in assay [3] and in assay [5] were 97.7%, 83.8% and 83.7%, respectively.
On to `COc1ccccc1-c1nc2c(c(=O)[nH]1)Cc1cccc(OC)c1O2`, for which the viability at 30 µM stood at 54.8% in assay [1], 63.6% in assay [4] and 80.2% in assay [6]. Also, the viability at 10 µM in assay [2] turned out to be 86%; in assay [3] it was 85.5%; in assay [5], 82.9%.
For the compound `COc1cccc(-c2nc3c(c(=O)[nH]2)Cc2cc(OC)ccc2O3)c1`, the viability at 30 µM in assay [1] was determined as 49.8%; in assay [4], 41.2%; in assay [6], 77%. The viability at 10 µM was 88% in assay [2], 73.1% in assay [3] and 69.3% in assay [5].

The values above are taken from ChEMBL document CHEMBL5385961, “In vitro and in vivo evaluation of novel chromeno[2,3-d]pyrimidinones as therapeutic agents for triple negative breast cancer” (RSC Med Chem, 2024).
